Source: US11419854B2, “Medicament containing pemafibrate” (KOWA COMPANY, LTD., priority 2017, dated 2022)

What was measured:
[1] = literature statement; cited from earlier work
[2] = Pharmacokinetic study of pemafibrate in liver cirrhosis patients (plasma unchanged pemafibrate, LC-MS-MS); type: in vivo, human; details: for AUC0-t, ratio of geometric mean to persons with normal liver function / Cmax, ratio of geometric mean to persons with normal liver function: single oral dose 0.2 mg, fasting
Description: To investigate the effect of liver cirrhosis on the pharmacokinetics of pemafibrate, a clinical study was conducted on mild liver cirrhosis patients, moderate liver cirrhosis patients, fatty liver patients, and persons with normal liver function.
Subjects were classified into four groups according to the criteria in Table 2. As a result, the subjects included 8 mild liver cirrhosis patients, 6 moderate liver cirrhosis, patients, 10 fatty liver patients, and 8 persons with normal liver function.
2. Test Method (1) Administration and Measurement Subjects received a single oral dose of 0.2 mg of study drug (pemafibrate) in the fasting state (fasting for at least 10 hours).
Blood samples were collected at a total of 16 time points immediately before administration of the investigational product and 0.25, 0.5, 1, 1.5, 2, 3, 4, 6, 8, 10, 12, 16, 24, 36, and 48 hours after administration of the investigational product, and plasma concentrations of unchanged pemafibrate were measured by high performance liquid chromatography/tandem mass spectrometry (High-Performance Liquid Chromatography/Tandem Mass Spectrometry: LC-MS-MS method).
To investigate the pharmacokinetics, the pharmacokinetic parameters (maximum concentration (Cmax) and area under the concentration-time curves […] (AUC0-t) of unchanged pemafibrate were evaluated by calculating the ratio of the geometric mean values of the groups of patients with hepatic dysfunction to those with normal hepatic function and their 90% confidence intervals.

[3] = fatty liver patients (n = 10) vs normal liver function (n = 8), plasma unchanged pemafibrate
[4] = mild liver cirrhosis Child-Pugh class A (n = 8) vs normal liver function (n = 8)
[5] = moderate liver cirrhosis Child-Pugh class B (n = 6) vs normal liver function (n = 8)

Row | geometric mean values of Cmax and AUC0-t compared with the liver function normal group ([2]; fatty liver patient group) | AUC0-t, ratio of geometric mean to persons with normal liver function [2, 3] | Cmax, ratio of geometric mean to persons with normal liver function [2, 3] | AUC0-t, ratio of geometric mean to persons with normal liver function [2, 4] | Cmax, ratio of geometric mean to persons with normal liver function [2, 4] | ratio of geometric mean values of Cmax and AUC0-t, liver cirrhosis patients to persons with normal liver function ([2]; mild liver cirrhosis patients (Child-Pugh Class A)) | AUC0-t, ratio of geometric mean to persons with normal liver function [2, 5] | Cmax, ratio of geometric mean to persons with normal liver function [2, 5] | ratio of geometric mean values of Cmax and AUC0-t, liver cirrhosis patients to persons with normal liver function ([2]; moderate liver cirrhosis patients (Child-Pugh Class B)) | Compound | route of excretion [1]
1 | – | – | – | – | – | – | – | – | – | CC(C)(Oc1ccc(CCNC(=O)c2ccc(Cl)cc2)cc1)C(=O)O [bezafibrate] | excreted in the urine primarily via kidneys
2 | about 1.2 times | 1.194 | 1.198 | 2.076 | 2.329 | approximately 2 fold | 4.191 | 3.882 | approximately 4 fold | CC[C@@H](Oc1cccc(CN(CCCOc2ccc(OC)cc2)c2nc3ccccc3o2)c1)C(=O)O [pemafibrate, (2R)-2-[3-({1,3-benzoxazol-2-yl[3-(4-methoxyphenoxy)propyl]amino}methyl)phenoxy]butanoic acid] | rarely excreted via kidneys
